Turning to `c1cnc2c(c1)ncn2CCCCc1nnnn1C1CCCCC1`, the melting point lay in the range of 94 to 95 °C.

`COc1ccc(CNC(=O)C(OC)OC)cc1OC` showed a melting point of 60 °C. `CC(C)Cn1cnc2c(N)nc3ccc(CCc4ccccc4)cc3c21`: the melting point was 175 to 178 °C. In turn, `CC(=O)SCC(C(=O)O)C(C)c1ccc(O)cc1` (configuration not stated) came in with a melting point of 48 °C. As for `O=C(NC1CC1)c1ccc2c(=O)nc(-c3ccccn3)sc2c1`, the figure is 272 to 274 °C; as for `CC(C)(C)c1cc(-c2nnc(N)o2)cc(C(C)(C)C)c1O`, 244 to 245 °C. With `CN(C)c1nc2sc3c(NCc4cccnc4)ncnc3c2c2c1CCC2(C)C`, the melting point was 237 to 238 °C. In turn, `COc1ccc(CSc2ccncc2)c2c1OCC2C` (configuration not stated) registered a melting point of 110 to 112 °C. As for `COc1ccc(CSc2ccc([N+](=O)[O-])cc2C(=O)O)cc1`, the figure is 200 to 204 °C. For the compound `O=C(Nc1ccc(-n2nc(C(F)(F)F)cc2C(F)(F)F)nc1)c1ccccc1Cl`, the melting point was 156 to 159 °C. Under `COc1nc(=O)n(-c2ccc(Cl)cc2)c(=O)[nH]1` stands 238 to 241 °C; under `COc1ccc(Cl)cc1-c1c(N)c(=O)[nH]c2cc(Cl)c(Cl)cc12`, greater than 300 °C. The compound `CCOC(=O)CCC(CC(=O)c1ccc(N)cc1)C(=O)OCC` (racemic) displayed a melting point of 58 to 61 °C. `CC1(c2ccccc2)SC(=S)N(Nc2ccccc2)C1=N` (configuration not stated) came in with a melting point of 118 to 119 °C. As for `CCC1SC=C(C)NC1=O` (configuration not stated), the figure is 69 to 71 °C. Compound `NC(=O)c1ccc(-c2ccc(Cl)cc2)nc1` displayed a melting point of 245 to 258 °C. Compound `O=C(NC(CS)Cc1ccccc1)N1CCCCCC1` (single isomer, unassigned; (+)) returned a melting point of 102 °C. `Cc1ccc(N2CCN(c3c(C)c(C)c4c(c3C)CC(C)(C)O4)CC2)cc1C`: the melting point is 137 to 139 °C.

For the compound `COc1cccc2c1OC(CN1CCC(NC(=O)Nc3ccccc3)CC1)CC2` (configuration not stated), the melting point turned out to be 163 °C.

As for `CC(C)(C)OC(=O)N1CCCN(c2c(F)c(F)nc(F)c2F)CC1`, the melting point fell in the range of 55 to 59 °C.

`CC1(C)SC(=NO)NC1=O` gave a melting point of 198 to 200 °C. `CC(C)COc1ccc(COc2ccc(CC(=O)O)cc2Cl)cc1Cl`: the melting point fell in the range of 128 to 129 °C. The compound `O=C1Nc2ccc(F)c(F)c2C1c1ncnc2c1cnn2C1CCCC1` (configuration not stated) gave a melting point greater than 300 °C. The compound `COc1ccccc1CN[C@H]1CCCN(Cc2ccccc2)[C@H]1c1ccccc1` (relative stereo) had a melting point of 68 to 70 °C. As for `Cc1ccc2c(c1)CC(Cl)c1cc(F)ccc1S2` (configuration not stated), the figure is 63 to 64 °C; as for `O=c1c2ccccc2cc(-c2ccc(F)cc2)n1CCF`, 119 to 121 °C; as for `OCCCCCCn1nc(-c2ccccc2)c(-c2ccccc2)c1-c1ccccc1`, 76 to 78 °C.

On to `O=C(O)C1Oc2ccc3c(-c4ccccc4)noc3c2O1` (configuration not stated), for which the melting point was 187 to 190 °C. Turning to `COC(=O)[C@H](Cc1c[nH]cn1)NC(=O)C(CCCCc1ccccc1)Cc1cccc2ccccc12` (some centres not stated), the melting point fell in the range of 45 to 47 °C.

For the compound `Cc1cc(C)nc(C(=O)c2[nH]c3ccc(Cl)cc3c2CC(=O)O)c1`, the melting point was 233 to 235 °C. The compound `O=C(O)COC1=C(Cc2ccc3c(Cl)cccc3c2)C(=O)CC1` yielded a melting point of 156 to 158 °C. Under `Clc1ccc(C=Cc2ccccc2)cc1` stands 129 to 130 °C; under `CCOC(=O)c1cc(-n2c(=O)c3c(n(COC)c2=O)CCC3)ccc1Cl`, 103 to 106 °C. The compound `O=S(=O)(/C=C/c1ccc(F)cc1F)CS(=O)(=O)/C=C/c1ccc(F)cc1F` had a melting point of 193 to 195 °C. In turn, `c1ccc(CCc2ccc[nH]2)cc1` returned a melting point of 40 to 42 °C.

Turning to `CS(=O)(=O)C1C(O)C(CO)OC1n1ccc(=O)[nH]c1=O` (configuration not stated), the melting point is 227 to 228 °C. Turning to `CC(NC(=O)c1cc(Cl)ccc1NC(=O)C1CC(=O)NN1)C1CC1` (configuration not stated), the melting point turned out to be 248 °C. Under `CC1C(=O)N(C2CCCC2)C(=S)N1c1ccc(Oc2ccccc2)cc1` (configuration not stated) stands 99 °C; under `CC(=O)Nc1ccc(S(=O)(=O)Nc2ccn(C3CC3)c(=O)n2)cc1`, 139 to 143 °C. As for `O=C(Nc1ccc(-n2nc(C(F)(F)F)cc2C(F)(F)F)cc1)C1CC1c1ccccc1` (configuration not stated), the figure is 176 to 178 °C; as for `O=C(O)CC1(c2cccc(F)c2)NC(=O)NC1=O` (configuration not stated), 206 to 208 °C; as for `COc1ccc(NC(N)=O)c(C#N)c1OC`, 198 to 200 °C.

Regarding `CCCCOP(=O)(CCCCC1(C(=O)NCCC)c2ccccc2-c2ncccc21)OCCCC` (configuration not stated), the melting point lay within 93.5 to 96 °C.

For the compound `Cc1cc(O)c(C)cc1O`, the melting point fell in the range of 60 to 62 °C. Compound `CC1(C)OC(=C(C#N)C#N)C(C#N)=C1C=Cc1cc2c3c(c1)CCCN3CCC2` had a melting point of 243 °C. The compound `O=C(Nc1cc2nc(-c3ccc(C(=O)C45CC6CC(CC(C6)C4)C5)cc3)[nH]c2cn1)C12CC3CC(CC(C3)C1)C2` registered a melting point of 265 °C. As for `CCSCCn1cc(C(=O)NCc2ccc(Cl)cc2)c(=O)c2cc(CN3CCOCC3)ccc21`, the melting point is 140 to 142 °C. As to `CC(C)Oc1cc(-n2c(=O)c(F)c(C(F)(F)C(F)(F)F)n(C)c2=O)c(F)cc1Cl`, the melting point lay within 107 to 109 °C.

The compound `CCOC(=O)c1cn(C)c2cc(C(C)(C)C)ccc2c1=O` came in with a melting point of 138 to 140 °C. Compound `CC(C)c1cc(C(=O)Nc2ccc(OCC(=O)O)cc2)oc1C(C)C` displayed a melting point of 83 to 85 °C. In the case of `OCC1=CC=C(COc2cc(C(F)(F)F)ccc2Cl)SS1`, the melting point is 94.2 to 96 °C. Take `O=C1NCCc2c(-c3ccc(C(F)(F)F)cc3)[nH]c3cccc1c23`: the melting point was 208 to 209 °C. As for `O=C(CC(F)=C(F)F)NS(=O)(=O)C(F)(F)F`, the melting point fell in the range of 115 to 120 °C.

In the case of `CN1C(=O)C(c2ccncc2)(c2ccc(OC(F)F)cc2)N=C1N` (configuration not stated), the melting point is 193 to 195 °C. Under `COc1cc2nc(N)nc(-c3c(Br)cc(C)cc3Br)c2cc1OC` stands 235 to 237 °C. `CC(C)(O)Cn1cnc2c(N)nc3c(c21)CCCC3` registered a melting point of 260 to 261 °C. In turn, `COC(=O)[C@H](Cc1ccc(OCC2CCCN(C(=O)OC(C)(C)C)C2)cc1)NC(=O)[C@@H]1CCCN1S(=O)(=O)c1ccc(C)cc1` (some centres not stated) displayed a melting point of 82 to 84 °C. `CC(C)N1CCC(C2c3ccccc3C=Cc3ccccc32)CC1`: the melting point fell in the range of 124 to 126 °C. `CCc1nc(N)nc(N)c1-c1ccc(Cl)c(N=NN(CCO)C(C)(C)C)c1`: the melting point fell in the range of 224 to 225 °C.

In the case of `CSc1cn(C)c2cc(Cl)sc2c1=O`, the melting point lay in the range of 231 to 234 °C. `O=C(NCCO[N+](=O)[O-])c1ccc(C2NC(C(=O)O)CS2)cc1` (configuration not stated) showed a melting point of 128 to 130 °C. With `CCN1C(=O)CN=C(c2ccccc2F)c2cc(C(C)=NO)ccc21`, the melting point was in the range of 236 to 238 °C. As for `COc1cc(Nc2c([N+](=O)[O-])ccc(Cl)c2C(=O)O)cc(OC)c1`, the melting point lay within 174 to 177 °C. Turning to `COC(=O)c1ccc(CN2C(=O)C(CCO)Oc3ccccc32)cc1` (configuration not stated), the melting point fell in the range of 94 to 95 °C. Under `CC(c1cc(Cl)cc(Cl)c1O)c1cc(F)cc(CO)c1O` (configuration not stated) stands 148 °C; under `COC(=O)CCn1cc(C2=C(c3cn(C)c4ccccc34)C(=O)NC2=O)c2ccccc21`, 209 to 211 °C.

Compound `Cc1ccc(Cn2nc(CCl)cc2-c2ccc(Cl)c(Cl)c2)cc1Cl` gave a melting point of 88 °C.

As to `COC(=O)c1cccc2cc(C)n(Cc3ccc(-c4ccccc4-c4nnn[nH]4)cc3)c12`, the melting point lay in the range of 180 to 182 °C. `NCC1CCc2[nH]c3cc(Cl)c(Cl)cc3c2C1` (configuration not stated) registered a melting point of 156 to 158 °C. The compound `CC(=O)NCC(=O)N1CC1C#N` (configuration not stated) came in with a melting point of 102 to 104 °C.

As to `Nc1ccc(-n2cnn(-c3ccc(OC(F)(F)F)cc3)c2=O)cc1`, the melting point was 115 to 120 °C. The compound `CC(=O)Nc1ccc(C(=O)Nc2ccc(O)cc2)cc1` registered a melting point of 275 to 277 °C. On to `COC(=O)c1cc(F)ccc1Nc1ccnc2cc(C(F)(F)F)ccc12`, for which the melting point amounted to 174 °C. `CNC(=O)Nc1ccc2c(c1)C(CN1CCC(n3ccc4cc(Cl)ccc43)CC1)CC2` (configuration not stated) yielded a melting point of 193 to 195 °C. `C=CCNc1c(C(N)=O)cnc2cn[nH]c12` showed a melting point of 254 to 258 °C. For the compound `CCCCNc1nc(N)nc(N)n1`, the melting point amounted to 167 °C.

`COc1ccc(C2=NCC(NN)=Nc3ccc(Cl)cc32)cc1` gave a melting point of 213 to 215 °C. The compound `CCCCOCCOc1ccc(-c2ccc3c(c2)C=C(C(=O)Nc2ccc(CSc4nnc(C)o4)cc2)CCN3CC(C)C)cc1` returned a melting point of 107 to 109 °C. Compound `O=C(O)c1cc(N2CCN(Cc3ccccc3)CC2)ccc1[N+](=O)[O-]` yielded a melting point of 172 °C. `COC1CCN(c2cccc(-c3cnc4[nH]cc(C(=O)C(C)(C)C)c4n3)c2)C1` (configuration not stated) had a melting point of 194 to 195 °C. As for `COc1ccccc1C=Cc1nc2c(c(=O)n(C)c(=O)n2C)n1C`, the figure is 238 to 240 °C; as for `O=C(O)C(Cl)(Cl)CCCCCCCCCCCCCCBr`, 61 to 63 °C; as for `Cc1ccc(OCC#CI)c(Cl)n1`, 130 to 132 °C. In the case of `CSc1cccc(-n2ncc(-c3ccc(S(C)(=O)=O)cc3)c(-c3ccc(F)cc3)c2=O)c1`, the melting point was found to be 196 °C. As for `CC(=O)CC(=O)c1ccc(C)nc1`, the melting point lay in the range of 57 to 58 °C. As for `O=c1c2cn[nH]c2nc2n1CCS2`, the figure is greater than 300 °C. Regarding `COc1cc(C(=O)N(C2CCCC2)C2CCCC2)ccc1Cn1cccc2ncnc1-2`, the melting point lay in the range of 223 to 224 °C. Take `CC(=O)c1nc(C)n2c1CN=C(c1ccccc1Cl)c1cc(Cl)ccc1-2`: the melting point fell in the range of 234 to 236 °C. As for `ClC(Cl)=CCOc1cc(Cl)c(OCCC2COC(c3ccc(Cl)cc3)O2)c(Cl)c1` (configuration not stated), the melting point is 84.1 °C. `N#CC1(c2ccc(Cl)cc2)CCC(=O)CC1` displayed a melting point of 94.5 to 97 °C.

Compound `COc1cc(OC)nc(Nc2cc(C)ccc2N)n1` gave a melting point of 128 to 129 °C. As to `Cc1nc2ccc(C(=O)NS(=O)(=O)c3ccccc3)nc2n1Cc1ccc(COc2ccccc2)cc1Cl`, the melting point fell in the range of 203 to 205 °C.

The values above are taken from a melting point compilation (Tetko et al.; mined from patent text by program, amines drawn as free bases though some values may be those of a salt).
